Laboratory results as given in US20060269480A1, “Multi-triggered self-immolative dendritic compounds” (Ramot At Tel Aviv University Ltd., priority 2005, published 2006).

Tests used:
MOLT-3 cells [1] = experiment: Apoptosis by annexin V/7-AAD flow cytometry; format: cell-based, human; conditions: 25 nM drug or prodrug, 1 μM 38C2 or PGA where stated
Experimental: (§1) Cell lines: Human T-lineage acute lymphoblastic leukemia (ALL) cell line MOLT-3, and human erythroleukemia cell line HEL were purchased from American Type Culture Collection (ATCC, Rockville, Md.) and maintained in RPMI 1640 medium (Hyclone, Logan, Utah) supplemented with 10% FCS, 1.5 gram/liter sodium bicarbonate, 10 mM HEPES, 1 mM sodium pyruvate, and antibiotics (Gibco, Grand Island, N.Y.).
Assessment of apoptosis: Cells were stained with Phycoerythrin (PE)-conjugated annexin V and 7-AAD using the annexin V kit (BD PharMingen, San Diego, Calif.) according to the manufacture's protocol. In brief, cells were collected at different time points, washed once with EDTA-free PBS, and then incubated for 15 minutes with a mixture containing annexin V-PE and 7-AAD in binding buffer (10 mM HEPES (pH 7.4), 140 mM NaCl, and 2.5 mM CaCl2). Thereafter, the supernatants were removed, and 400 μl of binding buffer was added to each sample. The fluorescence was analyzed by flow cytometry (FACScan, Becton Dickinson, San Jose, Calif.) for the presence of viable (AV^− and 7-AAD^−), early apoptotic (AV^+, 7-AAD^−), and late apoptotic/secondary necrotic (AV^+ and 7-AAD^+) cells.
MOLT-3cells were incubated in the presence of Compound 16 and PGA or Ab38C2, as described in the Methods section hereinabove, for various time periods. […]

HEL cells = experiment: Cell growth inhibition, [3H]thymidine proliferation assay; format: cell-based; conditions: Homo sapiens, read-out: IC50, HEL cells, 72 hours incubation, 38C2 or PGA at 1 μM where stated, read-out: IC50, Hell cells
Experimental: as §1
(§2) Cytotoxicity assays: Stock solutions of 2 mM doxorubicin (Dox) and dual-triggered prodrug (pro-Dox, Compound 16) in dimethylformamide were stored at 4° C. For cell-growth inhibition assays, 100 μM solutions of the drug or prodrug in PBS were freshly prepared from the 2 mM stock solutions.
(§3) Cells were harvested from culture dishes, washed once with HBSS, re-suspended in cell culture medium, and plated in 96-well tissue culture plate at a density of 5×10^3/well in 100 μl media. Drugs were further diluted in cell culture medium to yield final concentration of 50 pM-1 μM and added to the cells. […] The cells were frozen at −80° C. overnight and subsequently processed on a multichannel automated cell harvester (Cambridge Technology, Cambridge, Mass.) and counted in a liquid scintillation beta counter (Beckman Coulter). […] The inhibition in experiment E was calculated according to the following formula: (background−E)/background×100%. […]

MOLT-3 cells [2] = experiment: as above; format: cell-based; conditions: Homo sapiens, 72 hours incubation, 38C2 or PGA at 1 μM where stated
Experimental: as §1, §2, §3

IC50 (MOLT-3 cells [2]): 3 nM
Structure (SMILES): COc1cccc2c1C(=O)c1c(O)c3c(c(O)c1C2=O)C[C@@](O)(C(=O)CO)C[C@@H]3O[C@H]1C[C@H](N)[C@H](O)[C@H](C)O1 [Dox, doxorubicin]
incubation time after which the majority of cells were in early or late apoptotic state (MOLT-3 cells [1]): 24 h
induction of apoptosis (MOLT-3 cells [1]; up to 72 hours): undergo apoptosis
IC50 (HEL cells): 20 nM
